Experimental data published in ChEMBL document CHEMBL5634092, “Design, synthesis, and biological evaluation of novel HDAC/CD13 dual inhibitors for the treatment of cancer” (Eur J Med Chem, 2023).
Blank lines part the entries; values can stand above or below the compound they belong to.

Columns and labels:
[1] = biological target: T1, Aminopeptidase N (Sus scrofa, UniProt P15145); assay: Inhibition of porcine kidney CD13 using L-leucine-p-nitroanilide as substrate incubated for 30 mins by microplate reader analysis
T1 sequence (P15145 whole entry): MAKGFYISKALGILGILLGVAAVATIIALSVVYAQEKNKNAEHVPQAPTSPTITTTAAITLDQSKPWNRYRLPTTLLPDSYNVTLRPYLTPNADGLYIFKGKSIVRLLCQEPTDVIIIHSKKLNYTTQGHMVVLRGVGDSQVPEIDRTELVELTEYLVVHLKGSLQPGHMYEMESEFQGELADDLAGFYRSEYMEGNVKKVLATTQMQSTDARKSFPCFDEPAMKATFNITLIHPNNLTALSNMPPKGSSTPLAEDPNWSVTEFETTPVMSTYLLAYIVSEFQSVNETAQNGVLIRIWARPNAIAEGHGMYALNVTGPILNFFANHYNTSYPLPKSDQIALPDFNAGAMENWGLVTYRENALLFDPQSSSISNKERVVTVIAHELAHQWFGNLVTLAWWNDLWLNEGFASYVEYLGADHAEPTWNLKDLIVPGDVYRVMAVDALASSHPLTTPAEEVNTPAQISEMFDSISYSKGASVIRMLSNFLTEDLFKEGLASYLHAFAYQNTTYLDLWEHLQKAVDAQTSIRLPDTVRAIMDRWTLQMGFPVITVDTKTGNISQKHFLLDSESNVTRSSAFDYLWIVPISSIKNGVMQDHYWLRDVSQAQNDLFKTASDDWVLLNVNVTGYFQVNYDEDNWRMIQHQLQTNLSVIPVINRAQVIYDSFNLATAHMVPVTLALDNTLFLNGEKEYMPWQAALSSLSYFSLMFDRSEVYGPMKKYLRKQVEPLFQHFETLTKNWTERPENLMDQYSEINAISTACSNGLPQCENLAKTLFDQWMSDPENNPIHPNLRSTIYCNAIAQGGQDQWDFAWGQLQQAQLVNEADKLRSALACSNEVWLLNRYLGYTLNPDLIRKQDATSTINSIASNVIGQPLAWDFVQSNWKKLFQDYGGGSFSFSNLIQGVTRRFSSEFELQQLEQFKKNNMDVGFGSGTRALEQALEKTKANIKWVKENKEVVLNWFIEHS

[2] = biological target: Histone deacetylase 3 (Homo sapiens, UniProt O15379); assay: Inhibition of human HDAC3 using Boc-Lys (acetyl)-AMC as substrate incubated for 1 hr followed by substrate addition and further incubated for 2 hrs by fluorescence assay
Histone deacetylase 3, sequence (O15379 whole entry): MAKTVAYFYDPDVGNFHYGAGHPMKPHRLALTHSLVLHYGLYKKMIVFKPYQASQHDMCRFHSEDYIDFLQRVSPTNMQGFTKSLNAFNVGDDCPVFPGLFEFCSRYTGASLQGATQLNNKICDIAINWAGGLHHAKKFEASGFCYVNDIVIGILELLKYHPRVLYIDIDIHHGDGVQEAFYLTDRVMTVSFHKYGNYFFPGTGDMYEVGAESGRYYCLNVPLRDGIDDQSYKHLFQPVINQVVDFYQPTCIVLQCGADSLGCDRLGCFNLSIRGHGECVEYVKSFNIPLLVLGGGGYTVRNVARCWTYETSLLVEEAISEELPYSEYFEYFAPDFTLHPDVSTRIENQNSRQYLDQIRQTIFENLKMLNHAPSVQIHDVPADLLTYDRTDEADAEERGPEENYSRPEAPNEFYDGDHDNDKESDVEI

[3] = system: MV4-11; assay: Antiproliferative activity against human MV4-11 cells incubated for 48 hrs by resazurin based microplate reader analysis; settings: MV4-11, 48 h
[4] = biological target: Histone deacetylase 1 (Homo sapiens, UniProt Q13547); assay: Inhibition of human HDAC1 using Boc-Lys (acetyl)-AMC as substrate incubated for 1 hr followed by substrate addition and further incubated for 2 hrs by fluorescence assay
Histone deacetylase 1, sequence (Q13547 whole entry): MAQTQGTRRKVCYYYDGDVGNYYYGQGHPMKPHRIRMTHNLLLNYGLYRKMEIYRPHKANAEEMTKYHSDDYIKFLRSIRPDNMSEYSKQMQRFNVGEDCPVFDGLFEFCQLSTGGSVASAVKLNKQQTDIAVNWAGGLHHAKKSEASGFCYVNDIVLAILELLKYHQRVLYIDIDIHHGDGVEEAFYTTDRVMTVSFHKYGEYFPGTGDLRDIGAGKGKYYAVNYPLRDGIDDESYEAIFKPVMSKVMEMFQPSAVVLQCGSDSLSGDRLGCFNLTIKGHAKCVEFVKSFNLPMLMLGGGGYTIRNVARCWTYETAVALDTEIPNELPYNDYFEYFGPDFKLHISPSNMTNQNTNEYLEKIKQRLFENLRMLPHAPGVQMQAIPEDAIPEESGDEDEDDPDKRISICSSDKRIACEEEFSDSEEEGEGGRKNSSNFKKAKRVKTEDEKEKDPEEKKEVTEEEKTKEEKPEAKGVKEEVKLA

[5] = biological target: Histone deacetylase 2 (Homo sapiens, UniProt Q92769); assay: Inhibition of human HDAC2 using Boc-Lys (acetyl)-AMC as substrate incubated for 1 hr followed by substrate addition and further incubated for 2 hrs by fluorescence assay
Histone deacetylase 2, sequence (Q92769 whole entry): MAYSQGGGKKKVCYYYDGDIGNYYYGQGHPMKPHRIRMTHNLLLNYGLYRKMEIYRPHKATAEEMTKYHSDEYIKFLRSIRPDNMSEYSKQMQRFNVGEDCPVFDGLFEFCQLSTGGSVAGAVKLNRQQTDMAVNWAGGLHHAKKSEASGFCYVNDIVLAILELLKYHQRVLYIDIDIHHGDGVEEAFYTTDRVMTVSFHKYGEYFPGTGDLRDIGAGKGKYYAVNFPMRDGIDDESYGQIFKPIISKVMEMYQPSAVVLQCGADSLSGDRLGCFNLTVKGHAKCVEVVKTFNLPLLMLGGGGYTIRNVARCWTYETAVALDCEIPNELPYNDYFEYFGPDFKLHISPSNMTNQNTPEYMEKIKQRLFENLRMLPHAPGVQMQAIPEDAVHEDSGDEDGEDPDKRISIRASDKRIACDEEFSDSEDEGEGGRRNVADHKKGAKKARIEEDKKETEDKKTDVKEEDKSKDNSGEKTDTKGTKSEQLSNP

[6] = biological target: Aminopeptidase N (Homo sapiens, UniProt P15144); assay: Inhibition of human CD13 using L-leucine-p-nitroanilide as substrate incubated for 30 mins by microplate reader analysis
Aminopeptidase N (Homo sapiens, UniProt P15144), sequence (P15144 whole entry): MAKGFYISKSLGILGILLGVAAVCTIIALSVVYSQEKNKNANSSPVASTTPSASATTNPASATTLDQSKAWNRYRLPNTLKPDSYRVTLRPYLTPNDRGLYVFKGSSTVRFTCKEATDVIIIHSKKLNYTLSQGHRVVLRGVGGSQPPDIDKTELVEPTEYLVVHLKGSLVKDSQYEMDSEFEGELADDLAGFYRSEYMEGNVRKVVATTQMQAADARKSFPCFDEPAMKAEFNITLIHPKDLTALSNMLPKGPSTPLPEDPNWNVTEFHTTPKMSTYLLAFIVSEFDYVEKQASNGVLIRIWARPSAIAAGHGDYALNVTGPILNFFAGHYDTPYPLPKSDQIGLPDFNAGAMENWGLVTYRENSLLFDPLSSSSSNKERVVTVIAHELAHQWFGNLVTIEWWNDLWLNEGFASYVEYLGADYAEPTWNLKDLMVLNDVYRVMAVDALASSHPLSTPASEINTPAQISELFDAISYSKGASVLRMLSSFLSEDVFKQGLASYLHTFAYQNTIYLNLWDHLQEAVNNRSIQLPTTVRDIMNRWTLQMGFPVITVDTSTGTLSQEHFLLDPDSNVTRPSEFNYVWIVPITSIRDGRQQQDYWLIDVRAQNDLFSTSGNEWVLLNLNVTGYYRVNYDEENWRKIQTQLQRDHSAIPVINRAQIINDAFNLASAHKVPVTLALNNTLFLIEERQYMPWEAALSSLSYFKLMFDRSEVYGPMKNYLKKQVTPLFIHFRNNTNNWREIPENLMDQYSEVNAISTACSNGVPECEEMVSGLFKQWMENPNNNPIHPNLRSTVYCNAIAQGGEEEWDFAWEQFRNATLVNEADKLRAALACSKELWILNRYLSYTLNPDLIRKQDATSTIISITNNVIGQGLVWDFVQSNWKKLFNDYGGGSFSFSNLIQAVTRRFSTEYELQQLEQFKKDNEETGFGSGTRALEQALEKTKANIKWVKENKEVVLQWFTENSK

[7] = system: MV4-11; assay: Induction of apoptosis in human MV4-11 cells assessed as apoptotic rate at 2 uM incubated for 24 hrs by Annexin V-FITC staining based flow cytometry (reference value: 24.09 %); assay type: functional
[8] = system: K562; assay: Antiproliferative activity against human K562 cells incubated for 48 hrs by resazurin based microplate reader analysis; settings: K562, 48 h
[9] = Cytotoxicity against human HL7702 cells incubated for 48 hrs by resazurin based microplate reader analysis; settings: HL7702 (L02) cells
[10] = system: JeKo-1; assay: Antiproliferative activity against human JeKo-1 cells incubated for 48 hrs by resazurin based microplate reader analysis; settings: JeKo-1, 48 h
[11] = system: A549; assay: Induction of apoptosis in human A549 cells assessed as apoptotic rate at 20 uM incubated for 24 hrs by Annexin V-FITC staining based flow cytometry (reference value: 8.02 %); assay type: functional
[12] = system: A549; assay: Antiproliferative activity against human A549 cells incubated for 48 hrs by resazurin based microplate reader analysis; settings: A549, 48 h
[13] = system: HL-60; assay: Antiproliferative activity against human HL-60 cells incubated for 48 hrs by resazurin based microplate reader analysis; settings: HL-60, 48 h
[14] = system: BXPC-3; assay: Antiproliferative activity against human BXPC-3 cells incubated for 48 hrs by resazurin based microplate reader analysis; settings: BXPC-3, 48 h
[15] = biological target: T2, Protein deacetylase HDAC6 (Homo sapiens, UniProt Q9UBN7); assay: Inhibition of human HDAC6 using Boc-Lys (acetyl)-AMC as substrate incubated for 1 hr followed by substrate addition and further incubated for 2 hrs by fluorescence assay
T2 sequence (Q9UBN7 whole entry): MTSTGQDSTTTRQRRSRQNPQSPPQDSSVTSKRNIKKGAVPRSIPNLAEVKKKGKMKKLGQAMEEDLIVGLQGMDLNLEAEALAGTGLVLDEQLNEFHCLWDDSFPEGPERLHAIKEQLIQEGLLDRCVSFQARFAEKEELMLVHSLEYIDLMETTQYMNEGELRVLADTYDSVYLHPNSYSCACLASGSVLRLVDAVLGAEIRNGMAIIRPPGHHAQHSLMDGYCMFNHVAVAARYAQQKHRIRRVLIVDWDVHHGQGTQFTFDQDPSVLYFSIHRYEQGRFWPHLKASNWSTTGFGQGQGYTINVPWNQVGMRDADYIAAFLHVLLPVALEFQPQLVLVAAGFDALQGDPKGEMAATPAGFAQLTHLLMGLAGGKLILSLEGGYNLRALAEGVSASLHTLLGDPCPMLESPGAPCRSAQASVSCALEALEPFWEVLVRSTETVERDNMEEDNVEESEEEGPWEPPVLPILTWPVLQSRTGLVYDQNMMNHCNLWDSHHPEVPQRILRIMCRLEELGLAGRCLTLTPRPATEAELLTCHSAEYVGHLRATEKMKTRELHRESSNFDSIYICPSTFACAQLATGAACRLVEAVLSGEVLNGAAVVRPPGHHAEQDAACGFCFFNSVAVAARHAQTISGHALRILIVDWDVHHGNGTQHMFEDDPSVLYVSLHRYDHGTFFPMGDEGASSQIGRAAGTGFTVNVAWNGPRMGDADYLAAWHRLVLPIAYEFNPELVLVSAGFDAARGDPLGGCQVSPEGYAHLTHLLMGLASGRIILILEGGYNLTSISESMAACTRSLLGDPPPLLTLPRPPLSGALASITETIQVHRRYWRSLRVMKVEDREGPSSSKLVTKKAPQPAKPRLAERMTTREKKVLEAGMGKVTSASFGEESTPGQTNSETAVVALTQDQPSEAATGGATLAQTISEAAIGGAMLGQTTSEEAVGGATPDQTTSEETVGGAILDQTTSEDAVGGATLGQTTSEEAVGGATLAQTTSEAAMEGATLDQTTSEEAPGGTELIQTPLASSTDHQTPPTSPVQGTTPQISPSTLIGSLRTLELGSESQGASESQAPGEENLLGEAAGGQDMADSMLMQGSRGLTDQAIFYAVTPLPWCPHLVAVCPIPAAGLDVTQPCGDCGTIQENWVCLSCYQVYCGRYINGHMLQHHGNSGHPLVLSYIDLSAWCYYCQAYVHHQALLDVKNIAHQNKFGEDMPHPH

[16] = biological target: T3, Histone deacetylase 8 (Homo sapiens, UniProt Q9BY41); assay: Inhibition of human HDAC8 using Boc-Lys (tri-fluoroacetyl)-AMC as substrate incubated for 1 hr followed by substrate addition and further incubated for 2 hrs by fluorescence assay
T3 sequence (Q9BY41 whole entry): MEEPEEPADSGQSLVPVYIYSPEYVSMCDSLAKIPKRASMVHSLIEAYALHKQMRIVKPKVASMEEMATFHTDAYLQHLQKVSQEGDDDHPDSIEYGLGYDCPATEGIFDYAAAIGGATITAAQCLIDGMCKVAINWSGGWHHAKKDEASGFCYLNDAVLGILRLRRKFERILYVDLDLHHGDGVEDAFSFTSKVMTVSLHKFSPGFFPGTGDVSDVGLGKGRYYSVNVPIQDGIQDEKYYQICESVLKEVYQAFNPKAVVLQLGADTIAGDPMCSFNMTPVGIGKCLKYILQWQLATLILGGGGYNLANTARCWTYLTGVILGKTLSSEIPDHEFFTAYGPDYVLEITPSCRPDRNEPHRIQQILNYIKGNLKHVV

SMILES: CCCNNC(=O)CCCCCNC(=O)[C@H](CC(C)C)NC(=O)[C@@H](O)[C@H](N)Cc1ccccc1
IC50 [1]: 3030 nM
IC50 [2]: 90 nM

SMILES: CCCNNC(=O)[C@H](CC(C)C)NC(=O)[C@@H](O)[C@H](N)Cc1ccccc1
IC50 [3]: > 20000 nM
IC50 [1]: 18200 nM
IC50 [2]: > 10000 nM
IC50 [4]: > 10000 nM
IC50 [5]: > 10000 nM

SMILES: CCCNNC(=O)c1ccc(CNC(=O)[C@H](CC(C)C)NC(=O)[C@H](O)[C@@H](N)Cc2ccccc2)cc1
IC50 [6]: > 20000 nM
IC50 [1]: > 20000 nM
IC50 [2]: 60 nM

SMILES: CCCNNC(=O)c1ccc(CNC(=O)[C@H](CC(C)C)NC(=O)NCc2cccc3ccccc23)cc1
IC50 [1]: > 20000 nM
IC50 [2]: 120 nM

SMILES: CCCNNC(=O)c1ccc(CNC(=O)[C@H](CC(C)C)NC(=O)Nc2c(C)cccc2C)cc1
IC50 [1]: > 20000 nM
IC50 [2]: 290 nM

SMILES: CCCNNC(=O)CCCCCCNC(=O)[C@H](CC(C)C)NC(=O)[C@@H](O)[C@H](N)Cc1ccccc1
IC50 [1]: 9530 nM
IC50 [2]: 50 nM

SMILES: CCCNNC(=O)c1ccc(CNC(=O)[C@H]2CCCN2C(=O)[C@H](CC(C)C)NC(=O)[C@@H](O)[C@H](N)Cc2ccccc2)cc1
IC50 [1]: 2690 nM

SMILES: CC(C)C[C@H](NC(=O)[C@@H](O)[C@H](N)Cc1ccccc1)C(=O)O [UBENIMEX]
IC50 [3]: > 20000 nM
IC50 [2]: > 10000 nM
IC50 [4]: > 10000 nM
IC50 [5]: > 10000 nM

SMILES: O=C(CCCCCCC(=O)Nc1ccccc1)NO [VORINOSTAT]
IC50 [1]: > 20000 nM

More lines, in order of falling IC50 [1], values ahead:

IC50 [1]: 1630 nM
IC50 [2]: 60 nM
SMILES: CC(C)C[C@H](NC(=O)[C@@H](O)[C@H](N)Cc1ccccc1)C(=O)NCc1ccc(C(=O)Nc2ccccc2N)cc1

IC50 [6]: 480 nM
IC50 [3]: > 20000 nM
IC50 [1]: 1350 nM
IC50 [8]: > 20000 nM
IC50 [2]: 2420 nM
IC50 [12]: > 20000 nM
IC50 [4]: > 10000 nM
IC50 [13]: > 20000 nM
IC50 [14]: > 20000 nM
IC50 [5]: > 10000 nM
SMILES: COC(=O)c1ccc(CNC(=O)[C@H](CC(C)C)NC(=O)[C@@H](O)[C@H](N)Cc2ccccc2)cc1.Cl
Activity [7]: 33.7%
IC50 at 48 h [9]: > 100000 nM
IC50 [10]: > 20000 nM
Activity [11]: 8.31%

IC50 [1]: 550 nM
IC50 [2]: 1430 nM
IC50 [15]: 330 nM
IC50 [16]: 1350 nM
SMILES: CC(C)C[C@H](NC(=O)[C@@H](O)[C@H](N)Cc1ccccc1)C(=O)NCc1ccc(C(=O)NO)cc1

IC50 [1]: 400 nM
IC50 [2]: 80 nM
SMILES: CCCNNC(=O)c1ccc(CNC(=O)[C@H](CC(C)C)NC(=O)[C@@H](NC(=O)[C@@H](O)[C@H](N)Cc2ccccc2)[C@@H](C)CC)cc1
